Laboratory results: BindingDB's records for patent US20230339882 (Betta Pharmaceuticals, 2023)

Experiments:
[1] = target: T1, Tyrosine-protein phosphatase non-receptor type 11 (Homo sapiens, UniProt Q06124); assay: SHP2 Allosteric Inhibitory Enzyme Activity Assay
T1 sequence (Q06124 whole entry): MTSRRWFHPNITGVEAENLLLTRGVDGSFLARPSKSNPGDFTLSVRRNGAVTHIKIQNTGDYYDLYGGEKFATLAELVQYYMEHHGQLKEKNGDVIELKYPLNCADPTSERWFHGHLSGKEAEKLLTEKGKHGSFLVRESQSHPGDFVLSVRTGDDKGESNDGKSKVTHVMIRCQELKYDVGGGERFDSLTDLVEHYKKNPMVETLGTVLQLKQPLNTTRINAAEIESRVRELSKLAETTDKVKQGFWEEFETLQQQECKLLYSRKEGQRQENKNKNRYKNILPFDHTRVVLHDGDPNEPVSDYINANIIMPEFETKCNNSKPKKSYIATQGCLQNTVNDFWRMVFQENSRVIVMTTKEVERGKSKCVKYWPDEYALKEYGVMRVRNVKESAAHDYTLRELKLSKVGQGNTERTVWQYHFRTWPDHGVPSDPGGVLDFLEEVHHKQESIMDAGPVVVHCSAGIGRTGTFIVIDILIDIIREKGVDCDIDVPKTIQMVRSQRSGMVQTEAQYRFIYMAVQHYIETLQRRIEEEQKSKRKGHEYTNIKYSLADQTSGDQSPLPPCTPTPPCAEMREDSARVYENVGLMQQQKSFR
From the text: SHP2 is allosterically activated by binding of a bis-tyrosyl-phosphorylated peptide to its Src homology 2 (SH2) domain. This later activation step results in the release of the autoinhibitory interface of SHP2, which in turn activates the SHP2 protein tyrosine phosphatase (PTP) and is available for substrate recognition and reaction catalysis. The catalytic activity of SHP2 was monitored using the surrogate DiFMUP in a rapid fluorescence assay format.[0511]experiment procedure:(1) Compound preparation:The compounds of the present invention (10 mM stock solution) were diluted to appropriate times with 100% DMSO, and the final test concentrations of the compounds of the present invention were 10 µM, 3.3333 µM, 1.1111 µM, 0.3704 µM, 0.1235 µM, 0.0412 µM, 0.0137 µM, 0.0046 µM, 0.0015 µM, 0.00 µM;(2) Prepare the enzyme reaction working solution:Perform SHP2 enzymatic assays in 96-well black polystyrene plates (flat bottom, low flange, non-binding surface) (Perki Elmer, Cat#6005270) at room temperature using a final reaction volume of 50 µL and the following assay buffer conditions: 60 mM HEPES, 75 mM NaCl, 75 mM KCl, 0.05% BRIJ-35, 1 mM EDTA, 5 mM DTT.(3) Enzyme-catalyzed reaction and data monitoring:Add the compound of the present invention to the corresponding 96-well plate, and set the blank test well without compound and enzyme only with buffer. Thaw SHP2 Activating Peptide (IRS1_pY1172(dPEG8)pY1222) on ice, add 25 µM to each well, then add 0.2 ng of SHP2 protein sample to the corresponding well plate and incubate at room temperature for 1 hour. The surrogate substrate DiFMUP (Invitrogen, Cat #D6567) was added to the reaction and allowed to react for 1 hour at room temperature. Fluorescence signals were monitored using a microplate reader (Envision, Perki Elmer) using excitation and emission wavelengths of 340 nm and […], respectively.(4) Data analysis:Calculation Formula:Suppression rate %=1-Conversion_sample-Conversion_min/Conversion_max-Conversion_min×100%

[2] = target: Potassium voltage-gated channel subfamily H member 2 (Homo sapiens, UniProt Q12809); assay: Electrophysiological Stimulation Protocol
From the text: Measure the peak tail current.

Sequence of Potassium voltage-gated channel subfamily H member 2 (Q12809 whole entry): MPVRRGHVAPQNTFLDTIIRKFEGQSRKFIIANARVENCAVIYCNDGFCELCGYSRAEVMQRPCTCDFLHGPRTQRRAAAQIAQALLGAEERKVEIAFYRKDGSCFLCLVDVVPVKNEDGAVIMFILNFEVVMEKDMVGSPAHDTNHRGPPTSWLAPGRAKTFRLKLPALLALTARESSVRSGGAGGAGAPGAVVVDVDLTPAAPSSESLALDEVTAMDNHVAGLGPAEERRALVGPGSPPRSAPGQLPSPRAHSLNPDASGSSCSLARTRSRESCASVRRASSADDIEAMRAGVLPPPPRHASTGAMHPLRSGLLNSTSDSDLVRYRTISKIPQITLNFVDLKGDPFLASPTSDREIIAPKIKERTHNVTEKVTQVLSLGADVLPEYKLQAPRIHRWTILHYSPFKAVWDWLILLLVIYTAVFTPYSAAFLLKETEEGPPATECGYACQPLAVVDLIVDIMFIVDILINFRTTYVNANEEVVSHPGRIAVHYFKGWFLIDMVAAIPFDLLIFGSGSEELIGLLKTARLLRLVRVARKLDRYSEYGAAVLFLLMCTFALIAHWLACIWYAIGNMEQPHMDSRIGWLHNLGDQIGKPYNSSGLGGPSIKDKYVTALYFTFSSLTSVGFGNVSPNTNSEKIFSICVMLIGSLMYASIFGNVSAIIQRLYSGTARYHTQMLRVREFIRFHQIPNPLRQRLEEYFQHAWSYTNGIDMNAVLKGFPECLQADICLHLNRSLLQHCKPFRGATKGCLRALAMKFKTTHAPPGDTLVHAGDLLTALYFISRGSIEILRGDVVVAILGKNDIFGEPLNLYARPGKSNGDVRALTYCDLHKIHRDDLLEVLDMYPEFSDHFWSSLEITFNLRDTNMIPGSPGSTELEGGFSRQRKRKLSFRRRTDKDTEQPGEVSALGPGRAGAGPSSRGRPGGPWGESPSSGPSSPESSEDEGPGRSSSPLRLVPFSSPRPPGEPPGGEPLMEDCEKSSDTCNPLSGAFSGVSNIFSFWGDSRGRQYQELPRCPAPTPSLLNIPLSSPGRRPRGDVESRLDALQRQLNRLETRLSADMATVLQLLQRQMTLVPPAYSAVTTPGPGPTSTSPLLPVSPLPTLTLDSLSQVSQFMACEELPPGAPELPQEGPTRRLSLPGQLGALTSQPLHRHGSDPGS

Structure (SMILES)	IC50 [1] [nM]	IC50 [2] [nM]
N[C@@H]1c2ccccc2CC12CCN(c1ncc(C#CCOc3cccc(Cl)c3F)nc1CO)CC2 [US20230339882, Example A05]	4.9	–
COc1ccccc1OCC#Cc1cnc(N2CCC3(CC2)Cc2ccccc2[C@H]3N)c(CO)n1 [US20230339882, Example A10]	3.7	–
N#Cc1ccc(OCC#Cc2cnc(N3CCC4(CC3)Cc3ccccc3[C@H]4N)c(CO)n2)cc1 [US20230339882, Example A12]	1	–
N[C@@H]1c2ccccc2CC12CCN(c1ncc(C#CCOc3cccc(OC(F)(F)F)c3)nc1CO)CC2 [US20230339882, Example A15]	11	–
CC(=O)c1cccc(OCC#Cc2cnc(N3CCC4(CC3)Cc3ccccc3[C@H]4N)c(CO)n2)c1 [US20230339882, Example A16]	2.4	–
N[C@@H]1c2ccccc2CC12CCN(c1ncc(C#CCOc3ccc4ccc(=O)[nH]c4c3)nc1CO)CC2 [US20230339882, Example A24]	2.4	–
N[C@@H]1c2ccccc2CC12CCN(c1ncc(C#CCOc3ccc4c(c3)NC(=O)C4)nc1CO)CC2 [US20230339882, Example A25]	1.7	–
CC(=O)Nc1cccc(OCC#Cc2cnc(N3CCC4(CC3)Cc3ccccc3[C@H]4N)n(C)c2=O)c1 [US20230339882, Example A34]	5.3	–
CNC(=O)c1cccc(OCC#Cc2cnc(N3CCC4(CC3)Cc3ccccc3[C@H]4N)c(CO)n2)c1 [US20230339882, Example A35]	2.2	–
CN(C)C(=O)c1cccc(OCC#Cc2cnc(N3CCC4(CC3)Cc3ccccc3[C@H]4N)c(CO)n2)c1 [US20230339882, Example A36]	7.2	–
N[C@@H]1c2ccccc2CC12CCN(c1ncc(C#CCOc3ccc(C(F)(F)F)nc3)nc1CO)CC2 [US20230339882, Example A63]	2.6	–
N[C@@H]1c2ccccc2CC12CCN(c1ncc(C#CCNc3ccc4c(c3)NC(=O)CC4)nc1CO)CC2 [US20230339882, Example A64]	2.6	–
N[C@@H]1c2ccccc2CC12CCN(c1ncc(C#CCOc3ccc4[nH]ncc4c3)nc1CO)CC2 [US20230339882, Example A67]	3.1	–
CC(O)c1ccc(OCC#Cc2cnc(N3CCC4(CC3)Cc3ccccc3[C@H]4N)c(CO)n2)cc1 (stereo not given in full) [US20230339882, Example A71]	–	> 20000
CNC(=O)c1ccc(OCC#Cc2cnc(N3CCC4(CC3)Cc3ccccc3[C@H]4N)c(CO)n2)cc1 [US20230339882, Example A72]	2.6	–
